# Experimental data from patent publication US11905522B2, “Treatment of diseases by liver expression of an enzyme which has a deoxyribonuclease (DNase) activity” (CLS THERAPEUTICS LIMITED, priority 2018, dated 2024).
# Read-outs that look alike come from different tables or passages of the source.
# B1: RhDNase I: recombinant human DNase I in Patutina, 2011 (protein, UniProt P24855 23-282, looked up)
# Deoxyribonuclease-1: LKIAAFNIQTFGETKMSNATLVSYIVQILSRYDIALVQEVRDSHLTAVGKLLDNLNQDAPDTYHYVVSEPLGRNSYKERYLFVYRPDQVSAVDSYYYDDGCEPCGNDTFNREPAIVRFFSRFTEVREFAIVPLHAAPGDAVAEIDALYDVYLDVQEKWGLEDVMLMGDFNAGCSYVRPSQWSSIRLWTSPTFQWLIPDSADTTATPTHCAYDRIVVAGMLLRGAVVPDSALPFNFQAAYGLSDQLAQAISDHYPVEVMLK
# B2: DNase I protein (wt): recombinant wild-type DNase I protein injected IV in Example 7 (protein, UniProt P24855 23-282, looked up)
# Deoxyribonuclease-1: LKIAAFNIQTFGETKMSNATLVSYIVQILSRYDIALVQEVRDSHLTAVGKLLDNLNQDAPDTYHYVVSEPLGRNSYKERYLFVYRPDQVSAVDSYYYDDGCEPCGNDTFNREPAIVRFFSRFTEVREFAIVPLHAAPGDAVAEIDALYDVYLDVQEKWGLEDVMLMGDFNAGCSYVRPSQWSSIRLWTSPTFQWLIPDSADTTATPTHCAYDRIVVAGMLLRGAVVPDSALPFNFQAAYGLSDQLAQAISDHYPVEVMLK
# B3: DNaseI: DNaseI used to treat GVHD in mice (Li, 2015) (protein, UniProt P24855 23-282, looked up)
# Deoxyribonuclease-1: LKIAAFNIQTFGETKMSNATLVSYIVQILSRYDIALVQEVRDSHLTAVGKLLDNLNQDAPDTYHYVVSEPLGRNSYKERYLFVYRPDQVSAVDSYYYDDGCEPCGNDTFNREPAIVRFFSRFTEVREFAIVPLHAAPGDAVAEIDALYDVYLDVQEKWGLEDVMLMGDFNAGCSYVRPSQWSSIRLWTSPTFQWLIPDSADTTATPTHCAYDRIVVAGMLLRGAVVPDSALPFNFQAAYGLSDQLAQAISDHYPVEVMLK
# Columns and labels:
# MIA PaCa-2 xenografts = settings: vector 1.00 × 10^11 GC/kg IV single dose (Groups 2, 3), Gemcitabine 60 mg/kg IP BIW
# Protocol: 56 female BALB/c nude mice (IBCH RAN) of 6-8 weeks age and 18-22 g weight were used in experiment. The mice were kept in individual ventilation cages at controlled temperature and humidity with four animals in each cage. Each mouse was inoculated subcutaneously at the right flank with MIA PaCa-2 pancreatic tumor cells (1×10^7) in 0.2 ml of PBS supplemented with BD Matrigel (1:1) for tumor development. The treatments were started on day 17 after tumor inoculation when the average tumor size reached approximately 170 mm^3. Each group consisted of eight tumor-bearing mice.
# Tumor size was measured twice weekly in two dimensions using a caliper, and the volume was expressed in mm^3 using the formula: V=0.5 a×b^2 where a and b are the long and short diameters of the tumor, respectively. At the time of routine monitoring, the animals were checked daily for any effects of tumor growth and treatments on normal behavior such as mobility, food and water consumption by visual inspection only, loss or gain of body weight (measured twice weekly), eye/hair matting, and any other abnormal effects. On day 35, the study was terminated, the mice were humanely sacrificed by CO2, and blood was sampled from the central and hepatic veins. Liver tissues were also sampled and immersed into formalin for fixing.
# [1] = Serum DNase I activity (ORG590), MIA PaCa-2 model; type: in vivo, BALB/c nude mice; settings: day 35, regimen per Table 3 (rhDNaseI protein 50 mg/kg, Group 6)
# Protocol: Serum DNase I activity was measured using ORG590 (Orgentec) according to the manufacturer's protocol. Detection was performed using microplate photometer (Multiscan FC) at 450 nm with a correction wavelength of 620 nm. cfDNA in the liver tissue was quantified by immunohistochemistry (IHC) in liver paraffin slides using AC-30-10 mouse IgG DNA binding antibodies (Sigma) as primary antibodies and Novolink Polymer Detection Systems Novocastra (Leica Biosystems).
# Circulating cfDNA = settings: day 35; regimen per Table 3 (rhDNaseI protein 50 mg/kg, Group 6)
# Protocol: SYBR® Gold Nucleic Acid Gel Stain (Invitrogen) was diluted first at 1:1000 in dimethyl sulphoxide and then at 1:8 in phosphate-buffered saline. 10 μl of plasma samples were applied to 96-well plates. 40 μl of diluted SYBR® Gold was added to each well (final dilution 1:10,000) and fluorescence was measured with a 96 well fluorometer at an emission wavelength of 535 nm and an excitation wavelength of 485 nm.
# [2] = tested on: cfDNA in the liver tissue; assay: cfDNA in liver tissue by immunohistochemistry, MIA PaCa-2 model; type: in vivo, BALB/c nude mice; settings: day 35; vector given with gemcitabine (Group 2); gemcitabine alone (Group 7)
# Protocol: Detection was performed using microplate photometer (Multiscan FC) at 450 nm with a correction wavelength of 620 nm. cfDNA in the liver tissue was quantified by immunohistochemistry (IHC) in liver paraffin slides using AC-30-10 mouse IgG DNA binding antibodies (Sigma) as primary antibodies and Novolink Polymer Detection Systems Novocastra (Leica Biosystems).
# [3] = tested on: lung carcinoma and hepatoma metastatic disease; settings: administered daily at 0.02-2.3 mg/kg; cited from earlier work
# NLRP3 = assay: Brain NLRP3 inflammasome expression by RT-PCR, leaky gut rats; settings: twice daily IV 50 mg/kg day 7 to day 12
# Protocol: Leaky gut was induced in 24 rats using a bacteriophage cocktail against Enterobacteriaceae, Staphylococcaceae, and Streptococcaceae families so as to induce microbiota diseases. […] Phages (1.5 mL, 1×10^6 plaque-forming units/mL of each phage cocktail) were added to drinking water according to the manufacturer's instruction and administered orally for 10 days. At day 7 of phage treatment, rats were randomized into 4 groups as follows: six rats received intrahepatic injection of 1.0×10^12 LVP in a volume of 200 μl; six rats received injection of 1.0×10^12 LVP in a volume of 200 μl into a thigh muscle; six rats received twice daily intravenous injections of recombinant DNase I protein at 50 mg/kg between day 7 and day 12. The remaining six rats were used as the untreated leaky gut control. An additional six healthy rats were used as a healthy control. […] Brain autopsies were collected to perform NLRP3 inflammasome expression analysis and 16S universal bacterial RNA gene quantification.
# NLRP3 expression was assessed by collection of 50 mg cortical tissue samples. RNA was isolated using the SV total RNA isolation system (Promega). Superscript III one-step RT-PCR system with platinum Taq DNA Polymerase (Invitrogen) was used for reverse transcriptase-PCR using 5′-[sequence]-3′ (SEQ ID NO: 11) as forward NLRP3 primer and 5′-[sequence]-3′ (SEQ ID NO: 12) as reverse NLRP3 primer. […]
# [4] = DNase activity in blood, bacteriophage-induced leaky gut rats; type: in vivo, Wistar rats; settings: twice daily IV 50 mg/kg day 7 to day 12
# Protocol: At day 7 of phage treatment, rats were randomized into 4 groups as follows: six rats received intrahepatic injection of 1.0×10^12 LVP in a volume of 200 μl; six rats received injection of 1.0×10^12 LVP in a volume of 200 μl into a thigh muscle; six rats received twice daily intravenous injections of recombinant DNase I protein at 50 mg/kg between day 7 and day 12. The remaining six rats were used as the untreated leaky gut control. An additional six healthy rats were used as a healthy control. At day 12, all rats were sacrificed and blood samples were collected for measurement of the DNase activity in blood.
# Serum DNase I activity was measured using ORG590 (Orgentec) according to the manufacturer's protocol. Detection was performed using microplate photometer (Multiscan FC) at 450 nm with a correction wavelength of 620 nm.
# [5] = tested on: 16S universal bacterial RNA gene; assay: 16S universal bacterial RNA gene quantification in liver and brain, leaky gut rats; type: in vivo, Wistar rats; settings: twice daily IV 50 mg/kg day 7 to day 12
# GVHD = settings: mouse, in vivo; cited from earlier work
molecule,measurement,setting,value
Nc1ccn([C@@H]2O[C@H](CO)[C@@H](O)C2(F)F)c(=O)n1 [Gemcitabine],mean tumor volume,MIA PaCa-2 xenografts; Day 17,170 ± 13 mm^3
same,mean tumor volume,MIA PaCa-2 xenografts; Day 21,164 ± 14 mm^3
same,mean tumor volume,MIA PaCa-2 xenografts; Day 24,197 ± 17 mm^3
same,mean tumor volume,MIA PaCa-2 xenografts; Day 28,246 ± 10 mm^3
same,mean tumor volume,MIA PaCa-2 xenografts; Day 31,220 ± 8 mm^3
same,mean tumor volume,MIA PaCa-2 xenografts; Day 35,264 ± 14 mm^3
same,Dnase activity in blood,[1]; central vein,1.15 mKuU/ml
same,DNase activity in hepatic vein,[1],1.05 mKuU/ml
same,Cell free DNA in blood,Circulating cfDNA,241 ± 11 ng/mL
same,"cfDNA in the liver (IHC microphotographs, FIG. 4)",[2],A large amount of cfDNA
B1,suppressed the development of metastatic disease,[3],60-90%
B2,Average ΔCt values for brain NLRP3 from RT-PCR,NLRP3,17.341
same,Dnase activity in blood,[4],7.15 mKuU/ml
same,"Average ΔCt values for universal bacterial 16S from RT-PCR, brain",[5],27.417
same,"Average ΔCt values for universal bacterial 16S from RT-PCR, liver",[5],25.752
B3,treatment of GVHD in mice,GVHD,successful use
